Data: patent US12545685B2 (Daiichi Sankyo Company, Limited, priority 2011, dated 2026)

How the values were obtained:
[1] = target: T1, Mdm2/p53 binding (GST-Mdm2 / His-p53) (Homo sapiens, UniProt Q00987, L33E); experiment: Mdm2/p53 binding assay (HTRF, His-p53 and GST-Mdm2); conditions: His-p53 (aa 1-132) and GST-Mdm2 (aa 25-108, L33E) 6.25 nM each; 25°C, 1 hour; values given as ranges
T1 construct: Mdm2 partial protein having Mdm2 amino acids at positions 25 to 108
Summary of the method: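 His-p53 (aa 1–132) and GST-Mdm2 (aa 25–108, L33E) were prepared at 6.25 nM each in the protein dilution (20 mM HEPES pH 7.4, 150 mM NaCl, 0.1% BSA). Compound in 10% DMSO buffer and XL665 anti-His/Eu anti-GST antibodies (KF buffer) were added, with 1 h at 25 °C. The 665/620 nm TR-FRET ratio gave T/C and a sigmoid-fitted IC50.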

[2] = test system: human lung cancer-derived cell line NCI-H460 having wild-type p53; experiment: Cell growth inhibition assay (MTT); format: cell-based; conditions: 72 h, NCI-H460 cells, 3 days culture, values given as ranges, read-out: 50% growth inhibition concentration (GI50 value)
Procedure: A cell growth inhibition assay was conducted using a human lung cancer-derived cell line NCI-H460 having wild-type p53.
NCI-H460 cells were suspended in a medium (RPMI1640 medium containing 10% fetal bovine serum) and the suspension was added in an amount of 500 cells/150 μl/well to a 96-well plate. A test compound was dissolved in DMSO and this solution was diluted with medium to prepare a sample solution (DMSO concentration: 1% or lower). On the next day, medium nonsupplemented with the test compound, or the sample solution, was added in an amount of 50 μl/well. Cells were then cultured at 37° ° C. for 3 days in a 5% CO2 atmosphere.
An MTT assay was conducted immediately after the nonsupplemented medium or the sample solution was added. Another MTT assay was conducted after culturing the cells for 3 days. The MIT assays were conducted as shown below.
A 5 mg/ml MTT (3-(4,5-dimethylthiazol-2-yl)-2,5-diphenyltetrazolium bromide, Sigma-Aldrich Co., M-2128) solution was prepared using a phosphate buffer solution (Dulbecco's Phosphate-buffered Saline). This MIT solution was added in an amount of 20 μl/well. Then the plate was cultured at 37° ° C. for 4 hours in a 5% CO2 atmosphere. The plate was centrifuged at 1200 rpm for 5 minutes and then the culture supernatant was removed by aspiration using a dispenser. DMSO was added in an amount of 150 μl/well to dissolve generated formazan. The plate was stirred using a plate mixer for uniform color development from each well. The absorbance of each well was measured at OD 540 nm and at a reference OD (660 nm) using a plate reader (SpectraMax PLUS384, Molecular Devices, CA, USA).
The OD value measured on the day of adding the sample solution was defined as S. The OD value measured three days after addition of the sample solution was defined as T. The OD value measured three days after addition of the DMSO dilution was defined as C. T/C (%) was determined at each concentration according to the formula shown below in order to prepare a dose response curve, from which 50% growth inhibition concentration (GI50 value) was calculated.

T1 sequence (Q00987 25-108 L33E): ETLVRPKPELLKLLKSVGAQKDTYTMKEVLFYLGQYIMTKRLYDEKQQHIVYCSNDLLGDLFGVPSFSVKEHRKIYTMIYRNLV

CC1(C)CCC2(CC1)N[C@@H](C(=O)N[C@H]1CC[C@H](O)CC1)[C@H](c1cc(F)cc(Cl)c1)[C@]21C(=O)Nc2cc(Cl)ccc21 [Example 14, (3′R, 4′R, S′R)-6″-chloro-4′-(3-chloro-5-fluorophenyl)-N-(trans-4-hydroxycyclohexyl)-4,4-dimethyl-2″-oxo-1″,2″-dihydrodispiro[cyclohexane-1,2′-pyrrolidine-3′,3″-indole]-5′-carboxamide]
IC50 [1]: 0.1 to 0.5 µM
GI50 [2]: 0.5 to 1 µM

CC1(C)CCC2(CC1)N[C@@H](C(=O)N[C@@H]1CC[C@@H](C(C)(C)O)OC1)[C@H](c1ccnc(Cl)c1F)[C@]21C(=O)Nc2cc(Cl)ccc21 [Example 17, (3′R, 4′S,5′R)-6″-chloro-4′-(2-chloro-3-fluoropyridin-4-yl)-N-[(3R,6S)-6-(1-hydroxy-1-methylethyl)tetrahydro-2H-pyran-3-yl]-4,4-dimethyl-2″-oxo-1″,2″-dihydrodispiro[cyclohexane-1,2′-pyrrolidine-3′,3″-indole]-5′-carboxamide]
IC50 [1]: 0.05 to 0.1 µM
GI50 [2]: 0.1 to 0.5 µM

CC1(C)CCC2(CC1)N[C@@H](C(=O)N[C@@H]1CC[C@@H](CO)OC1)[C@H](c1ccnc(Cl)c1F)[C@]21C(=O)Nc2cc(Cl)ccc21 [Example 20, (3′R, 4′S,5′R)-6″-chloro-4′-(2-chloro-3-fluoropyridin-4-yl)-N-[(3R,6S)-6-(hydroxymethyl)tetrahydro-2H-pyran-3-yl]-4,4-dimethyl-2″-oxo-1″,2″-dihydrodispiro[cyclohexane-1,2′-pyrrolidine-3′,3″-indole]-S′-carboxamide]
IC50 [1]: 0.001 to 0.05 µM
GI50 [2]: < 0.1 µM

CC1(C)CCC2(CC1)N[C@@H](C(=O)N[C@@H]1CC[C@@H](CO)OC1)[C@H](c1ccnc(Cl)c1F)[C@]21C(=O)Nc2cc(Cl)c(F)cc21 [Example 23, (3′R, 4′S,5′R)-6″-chloro-4′-(2-chloro-3-fluoropyridin-4-yl)-5″-fluoro-N-[(3R,6S)-6-(hydroxymethyl)tetrahydro-2H-pyran-3-yl]-4,4-dimethyl-2″-oxo-1″,2″-dihydrodispiro[cyclohexane-1,2′-pyrrolidine-3′,3″-indole]-5′-carboxamide]
IC50 [1]: 0.001 to 0.05 µM
GI50 [2]: 0.1 to 0.5 µM

CC1(C)CCC2(CC1)N[C@@H](C(=O)N[C@@H]1CC[C@@H](CO)OC1)[C@H](c1ccnc(Cl)c1F)[C@]21C(=O)Nc2nc(Cl)ccc21 [Example 25, (3′R, 4′S,5′R)-6″-chloro-4′-(2-chloro-3-fluoropyridin-4-yl)-N-[(3R,6S)-6-(hydroxymethyl)tetrahydro-2H-pyran-3-yl]-4,4-dimethyl-2″-oxo-1″,2″-dihydrodispiro[cyclohexane-1,2′-pyrrolidine-3′,3″-pyrrolo[2,3-b]pyridine]-5′-carboxamide]
IC50 [1]: 0.001 to 0.05 µM
GI50 [2]: 0.5 to 1 µM

CC1(C)CCC2(CC1)N[C@@H](C(=O)N[C@@H]1CC[C@@H](CO)OC1)[C@H](c1cc(Cl)cc(CO)c1)[C@]21C(=O)Nc2cc(Cl)ccc21 [Example 28, (3′R, 4′R, 5′R)-6″-chloro-4′-[3-chloro-5-(hydroxymethyl)phenyl]-N-[(3R,6S)-6-(hydroxymethyl)tetrahydro-2H-pyran-3-yl]-4,4-dimethyl-2″-oxo-1″,2″-dihydrodispiro[cyclohexane-1,2′-pyrrolidine-3′,3″-indole]-5′-carboxamide]
IC50 [1]: 0.001 to 0.05 µM
GI50 [2]: 1 to 5 µM

CC1(C)CCC2(CC1)N[C@@H](C(=O)N[C@H]1CO[C@H](CO)[C@@H](O)C1)[C@H](c1ccnc(Cl)c1F)[C@]21C(=O)Nc2cc(Cl)ccc21 [Example 29]
IC50 [1]: 0.001 to 0.05 µM
GI50 [2]: 1 to 5 µM

CC1(C)CCC2(CC1)N[C@@H](C(=O)N[C@H]1CO[C@H](CO)[C@@H](O)C1)[C@H](c1cccc(Cl)c1F)[C@]21C(=O)Nc2nc(Cl)ccc21 [Example 30, (3′R, 4′S,5′R)-6″-chloro-4′-(3-chloro-2-fluorophenyl)-N-[(3R,5S,6R)-5-hydroxy-6-(hydroxymethyl)tetrahydro-2H-pyran-3-yl]-4,4-dimethyl-2″-oxo-1″,2″-dihydrodispiro[cyclohexane-1,2′-pyrrolidine-3′,3″-pyrrolo[2,3-b]pyridine]-5′-carboxamide]
IC50 [1]: 0.001 to 0.05 µM
GI50 [2]: 1 to 5 µM

CC1(C)CCC2(CC1)N[C@@H](C(=O)N[C@@H]1CC[C@@H](c3nnco3)OC1)[C@H](c1ccnc(Cl)c1F)[C@]21C(=O)Nc2cc(Cl)ccc21 [Example 34, (3′R, 4′S,5′R)-6″-chloro-4′-(2-chloro-3-fluoropyridin-4-yl)-4,4-dimethyl-N-[(3R,6S)-6-(1,3,4-oxadiazol-2-yl)tetrahydro-2H-pyran-3-yl]-2″-oxo-1″,2″-dihydrodispiro[cyclohexane-1,2′-pyrrolidine-3′,3″-indole]-5′-carboxamide]
IC50 [1]: 0.001 to 0.05 µM
GI50 [2]: 0.1 to 0.5 µM

CC1(C)CCC2(CC1)N[C@@H](C(=O)N[C@H]1CC[C@H](c3n[nH]c(=O)o3)CC1)[C@H](c1ccnc(Cl)c1F)[C@]21C(=O)Nc2cc(Cl)ccc21 [Example 35, (3′R, 4′S, S′R)-6″-chloro-4′-(2-chloro-3-fluoropyridin-4-yl)-4,4-dimethyl-2″-oxo-N-[trans-4-(5-oxo-4,5-dihydro-1,3,4-oxadiazol-2-yl)cyclohexyl]-1″,2″-dihydrodispiro[cyclohexane-1,2′-pyrrolidine-3′,3″-indole]-5′-carboxamide]
IC50 [1]: 0.05 to 0.1 µM
GI50 [2]: < 0.1 µM

O=C(N[C@@H]1CC[C@@H](CO)OC1)[C@@H]1NC2(CC(CF)(CF)C2)[C@@]2(C(=O)Nc3cc(Cl)ccc32)[C@H]1c1cccc(Cl)c1F [Example 38, (3′R, 4′S,5′R)-6″-chloro-4′-(3-chloro-2-fluorophenyl)-3,3-bis(fluoromethyl)-N-[(3R,6S)-6-(hydroxymethyl)tetrahydro-2H-pyran-3-yl]-2″-oxo-1″,2″-dihydrodispiro [cyclobutane-1,2′-pyrrolidine-3′,3″-indole]-5′-carboxamide]
IC50 [1]: 0.001 to 0.05 µM
GI50 [2]: 0.1 to 0.5 µM

CC1(C)CCC2(CC1)N[C@@H](C(=O)N[C@H]1CC[C@@](O)(CO)CC1)[C@H](c1ccnc(Cl)c1F)[C@]21C(=O)Nc2cc(Cl)ccc21 [Example 40, (3′R, 4′S,5R)-6″-chloro-4′-(2-chloro-3-fluoropyridin-4-yl)-N-[trans-4-hydroxy-4-(hydroxymethyl)cyclohexyl]-4,4-dimethyl-2″-oxo-1″,2″-dihydrodispiro[cyclohexane-1,2′-pyrrolidine-3′,3″-indole]-5′-carboxamide]
IC50 [1]: 0.001 to 0.05 µM
GI50 [2]: 0.5 to 1 µM

CC1(C)CCC2(CC1)N[C@@H](C(=O)N[C@@H]1CC[C@@H](C(C)(C)O)OC1)[C@H](c1ccnc(Cl)c1F)[C@]21C(=O)Nc2nc(Cl)ccc21 [Example 47, (3′R, 4′S,5′R)-6″-chloro-4′-(2-chloro-3-fluoropyridin-4-yl)-N-[(3R,6S)-6-(1-hydroxy-1-methylethyl)tetrahydro-2H-pyran-3-yl]-4,4-dimethyl-2″-oxo-1″,2″-dihydrodispiro[cyclohexane-1,2′-pyrrolidine-3′,3″-pyrrolo[2,3-b]pyridine]-5′-carboxamide]
IC50 [1]: 0.05 to 0.1 µM
GI50 [2]: 0.5 to 1 µM

CC1(C)CCC2(CC1)N[C@@H](C(=O)N[C@H]1CC[C@H](c3n[nH]c(=O)o3)CC1)[C@H](c1ccnc(Cl)c1)[C@]21C(=O)Nc2cc(Cl)ccc21 [Example 51, (3′R, 4′R, 5′R)-6″-chloro-4′=(2-chloropyridin-4-yl)-4,4-dimethyl-2″-oxo-N-[trans-4-(5-oxo-4,5-dihydro-1,3,4-oxadiazol-2-yl)cyclohexyl]-1″,2″-dihydrodispiro[cyclohexane-1,2′-pyrrolidine-3′,3″-indole]-5′-carboxamide]
IC50 [1]: 0.05 to 0.1 µM
GI50 [2]: 0.1 to 0.5 µM

CC1(C)CCC2(CC1)N[C@@H](C(=O)N[C@@H]1CC[C@@H](c3nnco3)OC1)[C@H](c1ccnc(Cl)c1)[C@]21C(=O)Nc2cc(Cl)ccc21 [Example 53, (3′R, 4′R, 5′R)-6″-chloro-4′-(2-chloropyridin-4-yl)-4,4-dimethyl-N-[(3R,6S)-6-(1,3,4-oxadiazol-2-yl)tetrahydro-2-pyran-3-yl]-2″-oxo-1″,2″-dihydrodispiro[cyclohexane-1,2′-pyrrolidine-3′,3″-indole]-5′-carboxamide]
IC50 [1]: 0.001 to 0.05 µM
GI50 [2]: 0.5 to 1 µM
